Here are results for 67 compounds from patent US9273028B2, “Heterocyclic tyrosine kinase inhibitors” (Biogen MA Inc., priority 2010, dated 2016).

Usually IC50 stands for the concentration that inhibits the measured activity by half.

The target in the assay is T1, BTK (Homo sapiens, UniProt Q06187).
T1 construct: purchased Upstate 14-552
The experiment in a line: In vitro BTK kinase assay (BTK-POLYGAT-LS). Format: biochemical. The note with it: IC50 (10 uM ATP). Here is the method: In vitro BTK Kinase Assay
The purpose of the BTK in vitro assay is to determine compound potency against BTK through the measurement of IC50. […] For a typical assay, a 24 μL aliquot of a ATP/peptide master mix (final concentration; ATP 10 μM, polyGAT 100 nM) in kinase buffer (10 mM Tris-HCl pH 7.5, 10 mM MgCl2, 200 μM Na3PO4, 5 mM DTT, 0.01% Triton X-100, and 0.2 mg/ml casein) is added to each well. […] The assay is incubated for 30 minutes before being stopped with 28 μL of a 50 mM EDTA solution. […] The plate is covered and incubated for 45 minutes at room temperature.

T1 sequence (Q06187 whole entry): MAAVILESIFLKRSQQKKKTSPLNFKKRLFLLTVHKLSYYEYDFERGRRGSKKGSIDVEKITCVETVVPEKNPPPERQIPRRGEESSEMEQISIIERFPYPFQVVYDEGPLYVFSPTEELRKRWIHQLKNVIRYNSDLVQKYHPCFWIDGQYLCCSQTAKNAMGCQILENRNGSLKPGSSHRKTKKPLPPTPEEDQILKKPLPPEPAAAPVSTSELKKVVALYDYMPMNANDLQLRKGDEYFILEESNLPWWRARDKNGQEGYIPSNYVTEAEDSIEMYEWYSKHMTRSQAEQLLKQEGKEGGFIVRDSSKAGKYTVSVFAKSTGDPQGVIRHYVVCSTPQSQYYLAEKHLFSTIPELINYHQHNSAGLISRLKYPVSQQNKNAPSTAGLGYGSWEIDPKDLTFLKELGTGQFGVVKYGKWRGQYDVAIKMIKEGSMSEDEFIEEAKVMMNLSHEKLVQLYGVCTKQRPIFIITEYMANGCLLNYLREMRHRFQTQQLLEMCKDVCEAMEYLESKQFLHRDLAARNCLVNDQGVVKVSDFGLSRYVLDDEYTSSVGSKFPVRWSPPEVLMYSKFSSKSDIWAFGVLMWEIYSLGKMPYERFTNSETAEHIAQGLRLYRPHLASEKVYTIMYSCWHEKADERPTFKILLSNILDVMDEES

Regarding `O=C1CCc2c(ncnc2N2CCC3CCN(C(=O)CNc4cc(Cl)cc(Cl)c4)CC32)N1` (stereo not shown) [Compound 156], the 50% inhibitory concentration (IC50) lay in the range of 1 to 10 µM. Consider `CNc1cc(NC2CCCN(C(=O)CNc3cc(Cl)cc(Cl)c3)C2)ncn1` (stereo not shown) [Compound 83], for which the IC50 was in the range of 0.1 to 0.999 µM. With `CN(c1ncnc2[nH]cnc12)[C@H]1CCCN(C(=O)CNc2cc(Cl)cc(Cl)c2)C1` [Compound 151] the figure was 0.1 to 0.999 µM; with `C[C@@H]1[C@@H](Nc2ncnc3[nH]ncc23)CCCN1C(=O)CNc1cc(Cl)cc(Cl)c1` [Compound 28], 0.1 to 0.999 µM; with `CC(C)C1C(Nc2ncnc3[nH]ccc23)CCCN1C(=O)CNc1cc(Cl)cc(Cl)c1` (stereo not shown) [Compound 34], < 0.1 µM. In turn, `CN(c1ncnc2[nH]ccc12)[C@@H]1CCN(C(=O)CNc2cc(Cl)cc(Cl)c2)C1` [Compound 127] returned an IC50 of 1 to 10 µM. Next, `CC1C(Nc2ncnc3[nH]ccc23)CCCN1C(=O)CNc1ccccc1S(=O)(=O)N1CCCC1` (stereo not shown) [Compound 79]: < 0.1 µM; `CCC[C@@H](Nc1cc(Cl)cc(Cl)c1)C(=O)N1CCCC(Nc2ncnc3[nH]ncc23)C1C` (stereo partly shown) [Compound 61]: < 0.1 µM.

`O=C(CNc1cc(C(F)(F)F)cc(C(F)(F)F)c1)N1CCC[C@H](Nc2ncnc3[nH]ccc23)C1` [Compound 187] yielded an IC50 of 1 to 10 µM. Compound `O=C(CNc1ccccc1)N1CCCC(Nc2ncnc3[nH]ccc23)C1C(F)(F)F` (stereo not shown) [Compound 18] had an IC50 of 0.1 to 0.999 µM. `CN(c1ncnc2[nH]ncc12)[C@H]1CCCN(C(=O)CNc2cc(Cl)cc(Cl)c2)C1` [Compound 212] showed a concentration for half-maximal inhibition (IC50) of 0.1 to 0.999 µM.

For `CC1C(Nc2ncnc3[nH]ccc23)CCCN1C(=O)[C@@H](C)Nc1cc(Cl)cc(Cl)c1` (stereo partly shown) [Compound 81], the half-inhibitory concentration (IC50) is < 0.1 µM. Regarding `CC1C(N(C)c2ncnc3[nH]ncc23)CCCN1C(=O)CNc1cc(Cl)cc(Cl)c1` (stereo not shown) [Compound 55], the half-maximal inhibitory concentration (IC50) was < 0.1 µM. With `O=C(CNc1cc(F)cc(Cl)c1)N1CCC[C@@H](Nc2ncnc3[nH]ncc23)C1` [Compound 216] the figure was 0.1 to 0.999 µM. Next, `COc1c(N)ncnc1N[C@H]1CCCN(C(=O)CNc2cc(Cl)cc(Cl)c2)C1` [Compound 168]: > 10 µM; `CC(C)CN(CC(C)C)S(=O)(=O)c1ccccc1NCC(=O)N1CCC[C@@H](Nc2ncnc3[nH]ccc23)C1` [Compound 218]: 0.1 to 0.999 µM; `CC1C(Nc2ncnc3[nH]ncc23)CCCN1C(=O)CNc1cc(Cl)cc(C(F)(F)F)c1` (stereo not shown) [Compound 58]: < 0.1 µM.

For `O=C(CNc1cc(Cl)cc(Cl)c1)N1CC[C@@H](Nc2ncnc3[nH]ccc23)C1` [Compound 155], the IC50 was > 10 µM.

`Nc1ncnc(N[C@H]2CCCN(C(=O)CNc3cc(Cl)cc(Cl)c3)C2)c1Cl` [Compound 134]: the 50% inhibitory concentration (IC50) is > 10 µM. With `O=C(CNc1cc(Cl)cc(Cl)c1)N1CC[C@H](Nc2ncnc3[nH]ccc23)C1` [Compound 152] the figure was > 10 µM; with `O=C1CCc2c(ncnc2N[C@H]2CCCN(C(=O)CNc3cc(Cl)cc(Cl)c3)C2)N1` [Compound 154], > 10 µM; with `O=C(CNc1ccccc1Cl)N1CCC[C@H](Nc2ncnc3[nH]ncc23)C1` [Compound 202], > 10 µM. Next, `CC[C@@H](Nc1cc(Cl)cc(Cl)c1)C(=O)N1CCCC(Nc2ncnc3[nH]ncc23)C1C` (stereo partly shown) [Compound 65]: < 0.1 µM; `CN(c1ncnc2[nH]ncc12)[C@H]1CCCN(C(=O)CNc2cc(Cl)cc(C(F)(F)F)c2)C1` [Compound 145]: 1 to 10 µM.

On to `CC1C(Nc2ncnc3[nH]ccc23)CCCN1C(=O)CNc1cc(Cl)cc(C(F)(F)F)c1` (stereo not shown) [Compound 80], for which the half-maximal inhibitory concentration (IC50) was < 0.1 µM. For `O=C(CNc1cc(Cl)cc(Cl)c1)N1CCC(c2ccccc2)C(Nc2ncnc3[nH]ccc23)C1` (stereo not shown) [Compound 137], the IC50 was > 10 µM.

`CC(=O)Nc1cc(NC2CCCN(C(=O)CNc3cc(Cl)cc(Cl)c3)C2)ncn1` (stereo not shown) [Compound 85] had an IC50 of 1 to 10 µM. In the case of `O=C(CNc1ccccc1C(F)(F)F)N1CCC[C@H](Nc2ncnc3[nH]ccc23)C1` [Compound 197], the half-inhibitory concentration (IC50) was > 10 µM. Next, `CN(C)C(=O)CN(c1ncnc2[nH]ccc12)[C@@H]1CCCN(C(=O)CNc2cc(Cl)cc(Cl)c2)C1` [Compound 40]: 0.1 to 0.999 µM. With `CCCCC1C(Nc2ncnc3[nH]ccc23)CCCN1C(=O)CNc1cc(Cl)cc(Cl)c1` (stereo not shown) [Compound 41] the figure was 0.1 to 0.999 µM; with `CCCN(CC(C)C)S(=O)(=O)c1ccccc1NCC(=O)N1CC[C@@H](C)[C@H](Nc2ncnc3[nH]ncc23)C1` [Compound 213], > 10 µM. Consider `CCCN(c1ncnc2[nH]ccc12)C1CCCN(C(=O)CNc2cc(Cl)cc(Cl)c2)C1` (stereo not shown) [Compound 106], for which the concentration for half-maximal inhibition (IC50) was < 0.1 µM.

For `O=C(CNc1ccc(F)cc1)N1CCC[C@H](Nc2ncnc3[nH]ncc23)C1` [Compound 205], the IC50 is > 10 µM. Next, `O=C(CNc1cc(F)cc(C(F)(F)F)c1)N1CCC[C@H](Nc2ncnc3[nH]ncc23)C1` [Compound 177]: 1 to 10 µM; `O=C(CNc1cc(Cl)cc(Cl)c1)N1CC[C@@H](Nc2ncnc3[nH]ncc23)C1` [Compound 153]: > 10 µM; `CC1C(Nc2ncnc3[nH]ccc23)CCCN1C(=O)CNc1ccccc1S(=O)(=O)N1CCCCC1` (stereo not shown) [Compound 66]: < 0.1 µM.

For `O=C([C@H](Nc1cc(Cl)cc(Cl)c1)C1CC1)N1CCC[C@H](Nc2ncnc3[nH]ccc23)C1` [Compound 206], the 50% inhibitory concentration (IC50) is 1 to 10 µM. As for `CN(c1ncnc2[nH]ncc12)[C@@H]1CCCN(C(=O)CNc2cc(Cl)cc(Cl)c2)C1` [Compound 211], the half-maximal inhibitory concentration (IC50) is < 0.1 µM. For the compound `C[C@H]1[C@@H](Nc2ncnc3[nH]ncc23)CCCN1C(=O)CNc1ccccc1S(=O)(=O)N1CCCCC1` [Compound 21], the half-inhibitory concentration (IC50) lay within 1 to 10 µM. Compound `CCN(c1ncnc2[nH]ccc12)C1CCCN(C(=O)CNc2cc(Cl)cc(Cl)c2)C1` (stereo not shown) [Compound 108] came in with an IC50 of 0.1 to 0.999 µM. Take `O=C(CNc1cc(Cl)cc(Cl)c1)N1CCCC(Nc2ncnc3[nH]ccc23)C1C1CCCC1` (stereo not shown) [Compound 33]: the half-inhibitory concentration (IC50) is < 0.1 µM. In the case of `CC1C(Nc2ncnc3[nH]ccc23)CCCN1C(=O)CNc1cc(F)cc(Cl)c1` (stereo not shown) [Compound 71], the concentration for half-maximal inhibition (IC50) was < 0.1 µM. Next, `CN(c1ncnc2[nH]ncc12)[C@H]1CCCN(C(=O)CNc2cc(C(F)(F)F)cc(C(F)(F)F)c2)C1` [Compound 150]: > 10 µM; `CN(c1ncnc2[nH]ncc12)[C@H]1CCCN(C(=O)CNc2cc(F)cc(Cl)c2)C1` [Compound 146]: 1 to 10 µM. With `O=C(CNc1cccc(Cl)c1)N1CCC[C@H](Nc2ncnc3[nH]ncc23)C1` [Compound 201], the IC50 fell in the range of 1 to 10 µM.

With `CCC[C@@H](Nc1cccc(Cl)c1)C(=O)N1CCC2CCN(c3ncnc4[nH]ccc34)C2C1` (stereo partly shown) [Compound 102], the half-inhibitory concentration (IC50) was < 0.1 µM.

In the case of `O=C(CNc1cc(Cl)cc(Cl)c1)N1CCC[C@H](Nc2ccnc3[nH]ccc23)C1` [Compound 169], the IC50 is < 0.1 µM.

For the compound `Nc1ncnc2c1ccn2C1CCCN(C(=O)CNc2cc(Cl)cc(Cl)c2)C1` (stereo not shown) [Compound 231], the IC50 was 1 to 10 µM. Next, `CC1C(Nc2ncnc(N)c2F)CCCN1C(=O)CNc1cc(Cl)cc(Cl)c1` (stereo not shown) [Compound 62]: < 0.1 µM. For `O=C([C@H](Nc1cc(F)cc(Cl)c1)C1CC1)N1CCC[C@H](Nc2ncnc3[nH]ncc23)C1` [Compound 223], the half-inhibitory concentration (IC50) is 1 to 10 µM. `Nc1ncnc(N[C@H]2CCCN(C(=O)CNc3cc(Cl)cc(Cl)c3)C2)c1F` [Compound 110] came in with an IC50 of 0.1 to 0.999 µM.

For the compound `O=C(CNc1ccc(C(F)(F)F)cc1)N1CCC[C@H](Nc2ncnc3[nH]ncc23)C1` [Compound 198], the half-maximal inhibitory concentration (IC50) was > 10 µM.

In the case of `NC(=O)c1cnc2[nH]ccc2c1NC1CCCN(C(=O)NCc2cc(Cl)cc(Cl)c2)C1` (stereo not shown) [Compound 224], the IC50 was < 0.1 µM. Next, `O=C(CNc1cc(Cl)cc(Cl)c1)N1CCCC(N(CCO)c2ncnc3[nH]ccc23)C1` (stereo not shown) [Compound 43]: < 0.1 µM; `CN(c1ncnc(N)c1C#N)[C@H]1CCCN(C(=O)CNc2cc(Cl)cc(Cl)c2)C1` [Compound 116]: > 10 µM. With `CC1CCC(NCC(=O)N2CCC[C@H](Nc3ncnc4[nH]ccc34)C2)CC1` (stereo partly shown) [Compound 139], the IC50 is > 10 µM. With `CCC[C@@H](Nc1cc(Cl)cc(Cl)c1)C(=O)N1CCCC(Nc2ncnc3[nH]ccc23)C1C` (stereo partly shown) [Compound 64] the figure was < 0.1 µM. For the compound `CCN(c1ncnc2[nH]ccc12)[C@H]1CCCN(C(=O)CNc2cc(Cl)cc(Cl)c2)C1` [Compound 126], the IC50 is > 10 µM. In the case of `O=C(CNc1cc(Cl)cc(Cl)c1)N1CCC[C@H](Nc2ncnc3[nH]ccc23)[C@@H]1C(F)(F)F` [Compound 11], the half-inhibitory concentration (IC50) was 0.1 to 0.999 µM.

Take `Nc1ncnc2c1cnn2C1CCCN(C(=O)CNc2cc(Cl)cc(Cl)c2)C1` (stereo not shown) [Compound 232]: the concentration for half-maximal inhibition (IC50) is > 10 µM. With `C[C@@H]1[C@H](Nc2ncnc3[nH]ncc23)CCCN1C(=O)CNc1ccccc1S(=O)(=O)N1CCCCC1` [Compound 22] the figure was < 0.1 µM; with `NC(=O)c1cnc2[nH]ccc2c1NC1CCCN(C(=O)CNc2cc(F)cc(Cl)c2)C1` (stereo not shown) [Compound 229], < 0.1 µM. Regarding `O=C(CNc1cccc(F)c1)N1CCC[C@H](Nc2ncnc3[nH]ncc23)C1` [Compound 182], the half-maximal inhibitory concentration (IC50) is > 10 µM. Take `O=C(CNc1ccccc1)N1CCCC(Nc2ncnc3[nH]ncc23)C1` (stereo not shown) [Compound 179]: the IC50 fell in the range of 1 to 10 µM. With `CC(=O)Nc1cc(N(C)[C@H]2CCCN(C(=O)CNc3cc(Cl)cc(Cl)c3)C2)ncn1` [Compound 128], the IC50 is > 10 µM. `Nc1ncnc(N[C@@H]2CCCN(C(=O)CNc3cc(Cl)cc(Cl)c3)C2)c1Cl` [Compound 8] yielded an IC50 of 1 to 10 µM. As to `CC1C(Nc2ncnc3[nH]ncc23)CCCN1C(=O)[C@H](Nc1cc(Cl)cc(Cl)c1)C1CC1` (stereo partly shown) [Compound 52], the half-inhibitory concentration (IC50) was < 0.1 µM.
